These results are taken from patent US20110293537A1, “FORMULATIONS WITH ANTI-NEOPLASTIC ACTIVITY” (priority 2008, published 2011).

Read-outs that look alike come from different tables or passages of the source.

Data set [1] relates to buccal pouches and principal organs. Put plainly: Local toxicity of empty vehicles without DMBA induction. It is filed as in vivo, Syrian golden hamsters (Mesocricetus auratus). The protocol:
The last thirty animals were randomly divided in three further groups (n=10 each) to evaluate the local toxicity of the empty vehicles (TE, TC and TM) without DMBA carcinogenesis induction. Topical application of EtOH, cream and mouthwash was performed in the same manner before described.
In vivo side effects were investigated after 14 weeks of E, C and M topical applications on right buccal pouches on three groups of animals (TE, TC and TM respectively).

Data set [2] deals with DMBA-induced lesions (OPL, ExL) of hamster buccal pouch. The conditions noted are these: in vivo.
For data set [3] the following is noted: cited from earlier work.
The conditions of data set [4]: cited from earlier work. This is another data set of the same source.
In data set [5] the test system is HCPC-I cells. Particulars: in vitro, FIG. 2.
Experimental: Cells were harvested every 3-4 days with 0.25% trypsin solution (from Sigma). […] HCPC-I cells were dispensed at a density of 5×10^2/100 μl for each well in RPMI-1640 supplemented with 10% FCS. […] After 72 h of incubation, cells were supplemented with 10 μl of a stock solution (5 mg/ml) of MTT (Sigma) in phosphate buffer saline (PBS). At least 3 h later, culture medium was replaced with 100 μl of dimethyl-sulfoxide (DMSO, Sigma) and plates read at 560 nm with a “Microplate Reader model 450” (BioRad). Cell viability was expressed as average percentage of absorbance in treated cells versus control (culture medium alone).
For data set [6] the following is noted: cited from earlier work. This is another data set of the same source.
Where [7] appears, read: 14 weeks topical application, no DMBA.

Consider `CCO` [EtOH, ethanol], for which, in data set [1] (setting [7]), the “gross observations of pouches and principal organs” value is “did not reveal any macroscopic alterations”; the “histological HE analysis, local adverse reactions” value was “absence of local adverse reactions”.

As to `Oc1ccc(/C=C/c2cc(O)cc(O)c2)cc1` [RV, 3,4′,5-trihydroxy-trans-stilbene], in data set [2], the “tolerance of topical application on oral mucosa” value was “good tolerance”. Moreover, the oral bioavailability entry in data set [3] (human) is listed as “very poor”. In data set [3] (in vivo), the initial half-life was 8 to 14 min. The pKa in data set [4] (3-OH group) is given as 10; in data set [4] (4′-OH group) it was 9.3; in data set [4] (5-OH group), 10.6.

As for hydroxypropyl-β-cyclodextrin [HPβCD], the “toxic signs or adverse effects in chronic treated hamsters” value in data set [1] (in vivo concentrations) is on record as “did not display any toxic signs or adverse effects”. In data set [5], the “inhibition of cell growth by HPβCD” value is “inhibition of cell growth only at extremely high concentrations”. The “dose with main adverse event (soft stools and diarrhea)” value in data set [6] (almost 14 days) was 16-24 g HPβCD/day. Besides, the oral toxicity result in data set [6] (orally administered) is on record as “practically non-toxic”.

Broadly, the pKa is the pH at which an ionisable group is half protonated.
